In patent US20230265151A1, “GIP/GLP1 CO-AGONIST COMPOUNDS” (priority 2020, published 2023):
Where two headings read alike, the source gives them in different places.

Columns and labels:
hGCGR = biological target: T1, hGCGR (Homo sapiens, UniProt P47871); test: Functional cAMP formation (HTRF) in HEK-293 clonal cells expressing hGCGR, 0.1% bovine casein, without or with 1.0% human serum albumin; format: cell-based
T1 construct: expressed in transfected cells
In short: (§1)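 Cells were stimulated with peptide for 30 min at 37° C, then lysed in buffer carrying cAMP-d2 and anti-cAMP Eu3+-cryptate for a competitive HTRF read after at least 60 min at room temperature. The 665/620 nm ratio was converted to nM cAMP against a standard curve.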

[1] = biological target: T2, human GIP receptor (hGIPR) (Homo sapiens, UniProt P48546); test: [125I]-GIP binding, SPA with membranes of CHO cells expressing hGIPR
T2 construct: expressed in transfected cells; crude membranes
T2 sequence (P48546 22-466): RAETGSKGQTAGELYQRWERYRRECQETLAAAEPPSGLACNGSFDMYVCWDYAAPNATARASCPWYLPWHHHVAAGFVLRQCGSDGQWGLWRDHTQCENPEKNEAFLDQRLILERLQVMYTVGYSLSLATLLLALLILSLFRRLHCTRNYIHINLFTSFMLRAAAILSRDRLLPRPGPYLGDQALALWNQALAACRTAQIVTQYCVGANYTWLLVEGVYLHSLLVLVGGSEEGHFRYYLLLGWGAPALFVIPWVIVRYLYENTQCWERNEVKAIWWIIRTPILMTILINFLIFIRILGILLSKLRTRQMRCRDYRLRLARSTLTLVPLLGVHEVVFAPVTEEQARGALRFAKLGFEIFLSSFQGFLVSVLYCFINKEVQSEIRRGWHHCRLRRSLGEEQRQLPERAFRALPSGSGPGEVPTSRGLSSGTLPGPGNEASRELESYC

hGIPR = biological target: T3, hGIPR (Homo sapiens, UniProt P48546); test: Functional cAMP formation (HTRF) in HEK-293 clonal cells expressing hGIPR, 0.1% bovine casein, without or with 1.0% human serum albumin; format: cell-based
T3 construct: expressed in transfected cells
T3 sequence (P48546 22-466): T2 sequence (P48546 22-466)
In short: as §1

[2] = biological target: T4, human GLP-1 receptor (hGLP-1R) (Homo sapiens, UniProt P43220); test: [125I]-GLP-1 binding, SPA with membranes of HEK293 cells expressing hGLP-1R
T4 construct: expressed in transfected cells; crude membranes

hGLP-1R = hGLP-1R (Homo sapiens, UniProt P43220); test: Functional cAMP formation (HTRF) in HEK-293 clonal cells expressing hGLP-1R, 0.1% bovine casein, without or with 1.0% human serum albumin; format: cell-based; set-up: expressed in transfected cells; settings: for EC50: geometric mean; for Emax: percent of maximal response to GLP-1(7-36)NH2
In short: as §1

[3] = 0.1% bovine casein and 1.0% human serum albumin, 37° C., geometric mean, read-out: hGCGR EC50, nM (SEM, n)
[4] = cAMP, incubated at 37° C., 0.1% bovine casein (no human serum albumin), geometric mean, read-out: hGCGR EC50, nM (SEM, n)
[5] = human GIPR, geometric mean (SEM, n), read-out: Binding Affinity Ki, nM (SEM, n) hGIPR
[6] = 0.1% bovine casein and 1.0% human serum albumin, 37° C., geometric mean, read-out: hGIPR EC50, nM (SEM, n)
[7] = human GLP-1R, geometric mean (SEM, n), read-out: Binding Affinity Ki, nM (SEM, n) hGLP-1R
[8] = 0.1% bovine casein and 1.0% human serum albumin, 37° C., read-out: hGLP-1R EC50, nM (SEM, n)

T1 sequence (P47871 26-477): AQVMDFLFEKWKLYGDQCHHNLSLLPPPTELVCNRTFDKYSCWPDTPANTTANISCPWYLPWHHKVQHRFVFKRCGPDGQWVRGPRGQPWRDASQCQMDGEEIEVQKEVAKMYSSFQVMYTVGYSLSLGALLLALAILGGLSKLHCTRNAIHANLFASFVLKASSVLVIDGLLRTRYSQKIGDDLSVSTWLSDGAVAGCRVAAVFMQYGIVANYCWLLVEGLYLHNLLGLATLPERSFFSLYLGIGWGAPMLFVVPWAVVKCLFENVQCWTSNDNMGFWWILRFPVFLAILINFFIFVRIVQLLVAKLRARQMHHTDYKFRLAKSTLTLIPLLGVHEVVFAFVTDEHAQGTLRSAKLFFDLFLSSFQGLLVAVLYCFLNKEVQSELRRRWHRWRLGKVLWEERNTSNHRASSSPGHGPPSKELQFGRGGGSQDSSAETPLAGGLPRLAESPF
T4 sequence (P43220 24-463): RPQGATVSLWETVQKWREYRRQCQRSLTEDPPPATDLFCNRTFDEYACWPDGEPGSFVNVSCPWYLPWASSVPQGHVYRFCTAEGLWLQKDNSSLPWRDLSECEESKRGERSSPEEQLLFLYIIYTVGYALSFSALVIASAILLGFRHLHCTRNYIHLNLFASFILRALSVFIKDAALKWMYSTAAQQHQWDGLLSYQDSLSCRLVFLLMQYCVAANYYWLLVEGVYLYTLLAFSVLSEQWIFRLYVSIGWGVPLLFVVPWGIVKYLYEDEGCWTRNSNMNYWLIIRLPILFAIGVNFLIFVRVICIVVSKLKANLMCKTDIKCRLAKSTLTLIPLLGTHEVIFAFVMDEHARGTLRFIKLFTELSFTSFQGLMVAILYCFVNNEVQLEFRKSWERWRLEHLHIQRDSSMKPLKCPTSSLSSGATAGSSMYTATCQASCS
Sequence of hGLP-1R (P43220 24-463): as above

## CC[C@H](C)[C@H](NC(=O)[C@H](CC(C)C)NC(=O)[C@](C)(Cc1ccc(O)cc1)NC(=O)[C@@H](CCC(=O)O)NC(=O)[C@@H](NC(=O)[C@H](Cc1ccccc1)NC(=O)[C@H](CCC(=O)O)NC(=O)C(C)(C)NC(=O)[C@H](CCC(N)=O)NC(=O)[C@H](C)NC(=O)[C@H](CCCCNC(=O)COCCOCCNC(=O)COCCOCCNC(=O)CC[C@H](NC(=O)CCCc1ccc(I)cc1)C(=O)O)NC(=O)[C@H](CCCN)NC(=O)[C@H](CC(=O)O)NC(=O)[C@H](CC(C)C)NC(=O)[C@](C)(CC(C)C)NC(=O)[C@@H](NC(=O)[C@H](CO)NC(=O)[C@H](Cc1ccncc1)NC(=O)[C@H](CC(=O)O)NC(=O)[C@H](CO)NC(=O)[C@@H](NC(=O)[C@](C)(Cc1ccccc1F)NC(=O)[C@@H](NC(=O)CNC(=O)[C@H](CCC(=O)O)NC(=O)C(C)(C)NC(=O)[C@@H](N)Cc1ccc(O)cc1)[C@@H](C)O)[C@@H](C)O)[C@@H](C)CC)[C@@H](C)CC)C(=O)N[C@@H](CCC(=O)O)C(=O)NCC(=O)NCC(=O)N[C@@H](CCCCNC(=O)COCCOCCNC(=O)COCCOCCNC(=O)CC[C@H](NC(=O)CCCc1ccc(I)cc1)C(=O)O)C(=O)N[C@@H](CO)C(=O)N[C@@H](CO)C(=O)NCC(=O)N[C@@H](C)C(=O)N1CCC[C@H]1C(=O)N1CCC[C@H]1C(=O)N1CCC[C@H]1C(=O)N[C@@H](CO)C(N)=O [Example 3]
hGCGR; [3]
  EC50: > 9950 nM
hGCGR; [4]
  EC50: > 9950 nM
[1]; [5]
  Ki: 0.0629 nM
hGIPR; [6]
  EC50: 0.0971 nM
hGIPR; HEK293, 0.1% bovine casein and 1.0% human serum albumin, 37° C., percent of maximal response to GIP(1-42)NH2, read-out: hGIPR Emax, % ± SEM
  Emax: 80%
hGIPR; HEK293, percent of maximal response to GIP(1-42)NH2, 37° C., 0.1% bovine casein, arithmetic mean, read-out: hGIPR Emax, % ± SEM
  Emax: 95.9 ± 2.95%
hGIPR; cAMP, incubated at 37° C., 0.1% bovine casein (no human serum albumin), geometric mean, read-out: hGIPR EC50, nM (SEM, n)
  EC50: 0.0133 nM
[2]; [7]
  Ki: 0.471 nM
hGLP-1R; [8]
  EC50: 1.05 nM
hGLP-1R; cAMP, incubated at 37° C., 0.1% bovine casein (no human serum albumin), read-out: hGLP-1R EC50, nM (SEM, n)
  EC50: 0.223 nM

## CCCCCCCCCCCCCCCC(=O)N[C@@H](CCC(=O)NCCOCCOCC(=O)NCCCC[C@H](NC(=O)CNC(=O)CNC(=O)[C@H](CCC(=O)O)NC(=O)[C@@H](NC(=O)[C@H](CC(C)C)NC(=O)[C@](C)(Cc1ccc(O)cc1)NC(=O)[C@@H](CCC(=O)O)NC(=O)[C@@H](NC(=O)[C@H](Cc1ccccc1)NC(=O)[C@H](CCC(=O)O)NC(=O)C(C)(C)NC(=O)[C@H](CCC(N)=O)NC(=O)[C@H](C)NC(=O)[C@H](CCCCNC(=O)COCCOCCNC(=O)CC[C@H](NC(=O)CCCCCCCCCCCCCCC)C(=O)O)NC(=O)[C@H](CCCN)NC(=O)[C@H](CC(=O)O)NC(=O)[C@H](CC(C)C)NC(=O)[C@](C)(CC(C)C)NC(=O)[C@@H](NC(=O)[C@H](CO)NC(=O)[C@H](Cc1ccncc1)NC(=O)[C@H](CC(=O)O)NC(=O)[C@H](CO)NC(=O)[C@@H](NC(=O)[C@](C)(Cc1ccccc1F)NC(=O)[C@@H](NC(=O)CNC(=O)[C@H](CCC(=O)O)NC(=O)C(C)(C)NC(=O)[C@@H](N)Cc1ccc(O)cc1)[C@@H](C)O)[C@@H](C)O)[C@@H](C)CC)[C@@H](C)CC)[C@@H](C)CC)C(=O)N[C@@H](CO)C(=O)N[C@@H](CO)C(=O)NCC(=O)N[C@@H](C)C(=O)N1CCC[C@H]1C(=O)N1CCC[C@H]1C(=O)N1CCC[C@H]1C(=O)N[C@@H](CO)C(N)=O)C(=O)O [Example 13]
hGCGR; [3]
  EC50: > 9950 nM
hGCGR; [4]
  EC50: > 9950 nM
[1]; [5]
  Ki: 0.0575 nM
hGIPR; [6]
  EC50: 1.45 nM
[2]; [7]
  Ki: 0.691 nM
hGLP-1R; [8]
  EC50: 6.79 nM

## CCCCCCCCCCCC(=O)N[C@@H](CCC(=O)NCCOCCOCC(=O)NCCOCCOCC(=O)NCCCC[C@H](NC(=O)[C@H](CCCN)NC(=O)[C@H](CC(=O)O)NC(=O)[C@H](CC(C)C)NC(=O)[C@](C)(CC(C)C)NC(=O)[C@@H](NC(=O)C(C)(C)NC(=O)[C@H](Cc1ccncc1)NC(=O)[C@H](CC(=O)O)NC(=O)[C@H](CO)NC(=O)[C@@H](NC(=O)[C@](C)(Cc1ccccc1F)NC(=O)[C@@H](NC(=O)CNC(=O)[C@H](CCC(=O)O)NC(=O)C(C)(C)NC(=O)[C@@H](N)Cc1ccc(O)cc1)[C@@H](C)O)[C@@H](C)O)[C@@H](C)CC)C(=O)N[C@@H](C)C(=O)N[C@@H](CCC(N)=O)C(=O)NC(C)(C)C(=O)N[C@H](C(=O)N[C@@H](Cc1ccccc1)C(=O)N[C@H](C(=O)N[C@H](CCC(=O)O)C(=O)N[C@@](C)(Cc1ccc(O)cc1)C(=O)N[C@@H](CC(C)C)C(=O)N[C@H](C(=O)N[C@@H](CCCCNC(=O)COCCOCCNC(=O)COCCOCCNC(=O)CC[C@H](NC(=O)CCCCCCCCCCC)C(=O)O)C(=O)NCC(=O)NCC(=O)N1CCC[C@H]1C(=O)N[C@@H](CO)C(=O)N[C@@H](CO)C(=O)NCC(=O)N[C@@H](C)C(=O)N1CCC[C@H]1C(=O)N1CCC[C@H]1C(=O)N1CCC[C@H]1C(=O)N[C@@H](CO)C(N)=O)[C@@H](C)CC)[C@@H](C)CC)[C@@H](C)O)C(=O)O [Example 419]
hGCGR; cAMP, 37° C., 0.1% bovine casein (no human serum albumin), geometric mean, read-out: hGCGR EC50, nM (SEM, n)
  EC50: > 9950 nM
hGCGR; cAMP, 37° C., 0.1% bovine casein and 1.0% human serum albumin, geometric mean (SEM, n), read-out: hGCGR EC50, nM (SEM, n)
  EC50: > 9950 nM
[1]; [5]
  Ki: 0.0166 nM
hGIPR; HEK293, cAMP, 37° C., 0.1% bovine casein and 1.0% human serum albumin, percent of maximal response to GIP(1-42)NH2, read-out: hGIPR Emax, % ± SEM
  Emax: 88.2%
hGIPR; cAMP, 37° C., 0.1% bovine casein (no human serum albumin), geometric mean, read-out: hGIPR EC50, nM (SEM, n)
  EC50: 0.00958 nM
hGIPR; cAMP, 37° C., 0.1% bovine casein and 1.0% human serum albumin, geometric mean (SEM, n), read-out: hGIPR EC50, nM (SEM, n)
  EC50: 0.44 nM
[2]; [7]
  Ki: 0.265 nM
hGLP-1R; HEK293, cAMP, 37° C., 0.1% bovine casein and 1.0% human serum albumin, read-out: hGLP-1R Emax, % ± SEM
  Emax: 97.3%
hGLP-1R; HEK293, cAMP, 37° C., 0.1% bovine casein, arithmetic mean, read-out: hGLP-1R Emax, % ± SEM
  Emax: 113%
hGLP-1R; cAMP, 37° C., 0.1% bovine casein (no human serum albumin), read-out: hGLP-1R EC50, nM (SEM, n)
  EC50: 0.132 nM

## CC[C@H](C)[C@H](NC(=O)[C@H](CC(C)C)NC(=O)[C@](C)(Cc1ccc(O)cc1)NC(=O)[C@H](CCCCNC(=O)COCCOCCNC(=O)COCCOCCNC(=O)COCCOCCNC(=O)CC[C@H](NC(=O)CCCCCCCCCOc1ccc(C(=O)O)cc1)C(=O)O)NC(=O)[C@@H](NC(=O)[C@H](Cc1ccccc1)NC(=O)[C@H](CCCN)NC(=O)C(C)(C)NC(=O)[C@H](CCC(N)=O)NC(=O)[C@H](C)NC(=O)[C@H](CCC(N)=O)NC(=O)[C@H](CCCN)NC(=O)[C@H](CC(=O)O)NC(=O)[C@H](CC(C)C)NC(=O)[C@](C)(CC(C)C)NC(=O)[C@@H](NC(=O)C(C)(C)NC(=O)[C@H](Cc1ccncc1)NC(=O)[C@H](CC(=O)O)NC(=O)[C@H](CO)NC(=O)[C@@H](NC(=O)[C@](C)(Cc1ccccc1F)NC(=O)[C@@H](NC(=O)CNC(=O)[C@H](CCC(=O)O)NC(=O)C(C)(C)NC(=O)[C@@H](N)Cc1ccc(O)cc1)[C@@H](C)O)[C@@H](C)O)[C@@H](C)CC)[C@@H](C)CC)C(=O)N[C@@H](CCCCNC(=O)COCCOCCNC(=O)COCCOCCNC(=O)COCCOCCNC(=O)CC[C@H](NC(=O)CCCCCCCCCOc1ccc(C(=O)O)cc1)C(=O)O)C(=O)NCC(=O)NCC(=O)N1CCC[C@H]1C(=O)N[C@@H](CO)C(=O)N[C@@H](CO)C(=O)NCC(=O)N[C@@H](C)C(=O)N1CCC[C@H]1C(=O)N1CCC[C@H]1C(=O)N1CCC[C@H]1C(=O)N[C@@H](CO)C(N)=O [Example 477]
hGCGR; hGCGR EC50, nM (SEM, n), cAMP, 37° C., 0.1% bovine casein (no human serum albumin), geometric mean
  EC50: > 9950 nM
hGCGR; hGCGR EC50, nM (SEM, n), cAMP, 37° C., 0.1% bovine casein and 1.0% human serum albumin, geometric mean (SEM, n)
  EC50: > 9950 nM
[1]
  Ki: 0.0279 nM
hGIPR; HEK293, read-out: hGIPR Emax, % ± SEM, cAMP, 37° C., 0.1% bovine casein and 1.0% human serum albumin, percent of maximal response to GIP(1-42)NH2
  Emax: 88.1%
hGIPR; hGIPR EC50, nM (SEM, n), cAMP, 37° C., 0.1% bovine casein (no human serum albumin), geometric mean
  EC50: 0.00861 nM
hGIPR; hGIPR EC50, nM (SEM, n), cAMP, 37° C., 0.1% bovine casein and 1.0% human serum albumin, geometric mean (SEM, n)
  EC50: 0.163 nM
[2]
  Ki: 0.143 nM
hGLP-1R; HEK293, read-out: hGLP-1R Emax, % ± SEM, cAMP, 37° C., 0.1% bovine casein and 1.0% human serum albumin
  Emax: 110%
hGLP-1R; HEK293, read-out: hGLP-1R Emax, % ± SEM, cAMP, 37° C., 0.1% bovine casein, arithmetic mean
  Emax: 110%
hGLP-1R; hGLP-1R EC50, nM (SEM, n), cAMP, 37° C., 0.1% bovine casein (no human serum albumin)
  EC50: 0.143 nM
